Measurements published in PubChem BioAssay AID248 (DTP/NCI, 2004).
Where “and” joins values, the source holds several entries; their conditions need not be identical. Equal values may be shown once. Inconclusive results and toxic doses are left out. Rule as the data show it: active = T/C of 150% or more; inactive = T/C below 125%.

System: L1210 leukemia ip in BDF1 mice, survival T/C
Assay: NCI In Vivo Anticancer Drug Screen. Data for tumor model L1210 Leukemia (intraperitoneal) in B6D2F1 (BDF1) mice
Settings: endpoint: mean survival time, higher = longer survival
In short: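 Tumor cells were implanted, animals were treated, and survival was followed. The result divides the treated measurement by the vehicle-control measurement.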

[1] = dose: 100.0 mg/kg/injection, schedule: Q01DX009 (ip), vehicle: Klucel (hydroxypropylcellulose) (HPC)
[2] = dose: 100.0 mg/kg/injection, schedule: Q04DX003 (ip), vehicle: Klucel (hydroxypropylcellulose) (HPC)
[3] = dose: 200.0 mg/kg/injection, schedule: Q01DX009 (ip), vehicle: Klucel (hydroxypropylcellulose) (HPC)
[4] = dose: 200.0 mg/kg/injection, schedule: Q04DX003 (ip), vehicle: Klucel (hydroxypropylcellulose) (HPC)
[5] = dose: 100.0 mg/kg/injection, schedule: Q01DX009 (ip), vehicle: saline with Tween-80
[6] = dose: 100.0 mg/kg/injection, schedule: Q04DX003 (ip), vehicle: saline
[7] = dose: 200.0 mg/kg/injection, schedule: Q01DX009 (ip), vehicle: saline with Tween-80
[8] = dose: 200.0 mg/kg/injection, schedule: Q04DX003 (ip), vehicle: saline
[9] = dose: 400.0 mg/kg/injection, schedule: Q04DX003 (ip), vehicle: saline
[10] = dose: 100.0 mg/kg/injection, schedule: Q01DX001 (ip), vehicle: carboxymethylcellulose (CMC)
[11] = dose: 200.0 mg/kg/injection, schedule: Q01DX001 (ip), vehicle: carboxymethylcellulose (CMC)
[12] = dose: 400.0 mg/kg/injection, schedule: Q01DX001 (ip), vehicle: carboxymethylcellulose (CMC)
[13] = dose: 100.0 mg/kg/injection, schedule: Q01DX001 (ip), vehicle: Klucel (hydroxypropylcellulose) (HPC)
[14] = dose: 200.0 mg/kg/injection, schedule: Q01DX001 (ip), vehicle: Klucel (hydroxypropylcellulose) (HPC)
[15] = dose: 400.0 mg/kg/injection, schedule: Q04DX003 (ip), vehicle: Klucel (hydroxypropylcellulose) (HPC)

Measured: T/C

CC(CN=[N+]=[N-])OC(=O)C(F)(F)F (stereo not given)
inactive: dose: 37.5 mg/kg/injection, schedule: Q04DX003 (ip), vehicle: saline 104 % of control | dose: 75.0 mg/kg/injection, schedule: Q04DX003 (ip), vehicle: saline 102 % of control | dose: 150.0 mg/kg/injection, schedule: Q04DX003 (ip), vehicle: saline 106 % of control

Cc1ccc(C2(C(=O)O)CCCCC2)cc1
inactive: dose: 50.0 mg/kg/injection, schedule: Q01DX009 (ip), vehicle: Klucel (hydroxypropylcellulose) (HPC) 96 % of control | [1] 90 % of control | [2] 102 % of control | [3] 88 % of control | [4] 98 % of control

CC(=O)N(C(C)=O)c1ccc(N=Nc2ccccc2C)cc1C
inactive: dose: 50.0 mg/kg/injection, schedule: Q01DX009 (ip), vehicle: saline with Tween-80 94 % of control | [5] 86 % of control | [6] 94 % of control | [7] 106 % of control | [8] 94 % of control | [9] 92 % of control

O=C(CCc1ccc(O)cc1)c1ccccc1
inactive: dose: 100.0 mg/kg/injection, schedule: Q04DX002 (ip), vehicle: Klucel (hydroxypropylcellulose) (HPC) 97 % of control | dose: 200.0 mg/kg/injection, schedule: Q04DX002 (ip), vehicle: Klucel (hydroxypropylcellulose) (HPC) 87 % of control | dose: 400.0 mg/kg/injection, schedule: Q04DX002 (ip), vehicle: Klucel (hydroxypropylcellulose) (HPC) 94 % of control

CC(C)NS(=O)(=O)c1ccc(Cl)cc1
inactive: [2] 100 % of control | [4] 102 % of control

C/C=C/C=C/C(=O)N(C)c1ccccc1
inactive: dose: 50.0 mg/kg/injection, schedule: Q01DX001 (ip), vehicle: carboxymethylcellulose (CMC) 111 % of control | [10] 103 % of control | [11] 103 % of control | [12] 100 % of control

CC(=O)Nc1c(Cl)c(Cl)c2c(c1Cl)C(O)c1cc(Cl)ccc1-2 (stereo not given)
inactive: [10] 103 % of control | [11] 97 % of control | [12] 114 % of control

NNC(=O)CNc1ccccc1
inactive: dose: 50.0 mg/kg/injection, schedule: Q01DX001 (ip), vehicle: Klucel (hydroxypropylcellulose) (HPC) 100 % of control | [13] 110 % of control | [14] 117 % of control

[O-][n+]1c2ccc(Cl)cc2nc2ccc(Cl)cc21
inactive: dose: 25.0 mg/kg/injection, schedule: Q04DX003 (ip), vehicle: Klucel (hydroxypropylcellulose) (HPC) 95 % of control | dose: 50.0 mg/kg/injection, schedule: Q04DX003 (ip), vehicle: Klucel (hydroxypropylcellulose) (HPC) 93 % of control | [2] 92 % of control and 88 % of control

C1CCC2(CC1)SC1(CCCCC1)SC1(CCCCC1)S2
inactive: dose: 100.0 mg/kg/injection, schedule: Q01DX009 (ip), vehicle: other 94 % of control | dose: 100.0 mg/kg/injection, schedule: Q04DX003 (ip), vehicle: other 95 % of control | dose: 200.0 mg/kg/injection, schedule: Q01DX009 (ip), vehicle: other 95 % of control | dose: 200.0 mg/kg/injection, schedule: Q04DX003 (ip), vehicle: other 97 % of control | dose: 400.0 mg/kg/injection, schedule: Q01DX009 (ip), vehicle: other 92 % of control | dose: 400.0 mg/kg/injection, schedule: Q04DX003 (ip), vehicle: other 97 % of control

CNC(=S)Nc1ccccc1
inactive: dose: 100.0 mg/kg/injection, schedule: Q04DX003 (ip), vehicle: carboxymethylcellulose (CMC) 95 % of control | dose: 200.0 mg/kg/injection, schedule: Q04DX003 (ip), vehicle: carboxymethylcellulose (CMC) 96 % of control

NCC1COc2ccccc2O1 (stereo not given)
inactive: dose: 75.0 mg/kg/injection, schedule: Q01DX001 (ip), vehicle: carboxymethylcellulose (CMC) 98 % of control | dose: 150.0 mg/kg/injection, schedule: Q01DX001 (ip), vehicle: carboxymethylcellulose (CMC) 96 % of control | dose: 300.0 mg/kg/injection, schedule: Q01DX001 (ip), vehicle: carboxymethylcellulose (CMC) 96 % of control

O=[N+]([O-])c1cc(Cl)c(Cl)cc1NCCCO
inactive: dose: 100.0 mg/kg/injection, schedule: Q01DX001 (ip), vehicle: saline 95 % of control | dose: 100.0 mg/kg/injection, schedule: Q01DX009 (ip), vehicle: acetone 95 % of control | [6] 91 % of control | dose: 200.0 mg/kg/injection, schedule: Q01DX001 (ip), vehicle: saline 96 % of control | dose: 200.0 mg/kg/injection, schedule: Q01DX009 (ip), vehicle: acetone 97 % of control | [8] 96 % of control | dose: 400.0 mg/kg/injection, schedule: Q01DX001 (ip), vehicle: saline 92 % of control | [9] 89 % of control

Cc1ccc(S(=O)(=O)N2CC3CC2CN3Cc2ccccc2)cc1 (stereo not given)
inactive: [1] 97 % of control | [2] 98 % of control | [3] 97 % of control | [4] 101 % of control | dose: 400.0 mg/kg/injection, schedule: Q01DX009 (ip), vehicle: Klucel (hydroxypropylcellulose) (HPC) 92 % of control | [15] 106 % of control

COc1ccc(C(O)(c2ccccc2)C(O)c2ccccc2)cc1 (stereo not given)
inactive: [5] 98 % of control | [7] 88 % of control | dose: 400.0 mg/kg/injection, schedule: Q01DX009 (ip), vehicle: saline with Tween-80 86 % of control

CC12CC3CC(C1)CC(CC(N)=O)(C3)C2
inactive: [6] 98 % of control | [8] 103 % of control | [9] 98 % of control

NC(N)=N/N=C/c1cc(Br)ccc1O
inactive: dose: 75.0 mg/kg/injection, schedule: Q01DX001 (ip), vehicle: saline 102 % of control | dose: 150.0 mg/kg/injection, schedule: Q01DX001 (ip), vehicle: saline 98 % of control

CCCCCC#CC(=O)OCC
inactive: [5] 100 % of control | [7] 89 % of control

O=C1c2ccccc2C2(c3ccccc3)C=NNC12c1ccccc1 (stereo not given)
inactive: [13] 103 % of control | [2] 106 % of control | [14] 98 % of control | [4] 97 % of control | dose: 400.0 mg/kg/injection, schedule: Q01DX001 (ip), vehicle: Klucel (hydroxypropylcellulose) (HPC) 95 % of control | [15] 103 % of control

O=C[CH2][Hg][Cl]
inactive: dose: 0.78 mg/kg/injection, schedule: Q01DX009 (ip), vehicle: saline with Tween-80 96 % of control | dose: 1.56 mg/kg/injection, schedule: Q01DX009 (ip), vehicle: saline with Tween-80 96 % of control | dose: 3.13 mg/kg/injection, schedule: Q01DX009 (ip), vehicle: saline with Tween-80 93 % of control

C[N+](C)(C)Cc1ccc([N+](=O)[O-])cc1
inactive: dose: 2.2 mg/kg/injection, schedule: Q01DX001 (ip), vehicle: saline 101 % of control | dose: 3.3 mg/kg/injection, schedule: Q01DX001 (ip), vehicle: saline 97 % of control | dose: 5.0 mg/kg/injection, schedule: Q01DX001 (ip), vehicle: saline 94 % of control | dose: 7.5 mg/kg/injection, schedule: Q01DX001 (ip), vehicle: saline 101 % of control
